Measurements: US9409952B2, “Peptide-compound cyclization method” (Chugai Seiyaku Kabushiki Kaisha, priority 2011, dated 2016)
Where two headings read alike, the source gives them in different places. Starred links: 1 amine or outer side, 2 acyl side, 3 side chain; linkers in the order of their positions; H or OH if unused. Positions of bridges follow the written chain, without caps; N, C: chain ends. Non-standard residues stand in square brackets, D forms with d. Residues, ends and D or L forms follow the SMILES beside them. ξ: configuration not given here. *: point of attachment. NMeF = CN[C@@H](Cc1ccccc1)C(=O)O; NMeI = CC[C@H](C)[C@H](NC)C(=O)O; NMeβAla = CN(CCC(=O)[*:2])[*:1]; NMeξIle = CC[C@H](C)C(NC)C(=O)O; NMeL = CN[C@@H](CC(C)C)C(=O)O; NMeV = CN[C@H](C(=O)O)C(C)C; NMeA = CN[C@@H](C)C(=O)O; Piperidide = C1CCN(*)CC1; dNMeA = CN[C@H](C)C(=O)O; ξL = CC(C)CC(N)C(=O)O; Sar = CNCC(=O)O; tBu = CC(C)(C)*

Experiments:
[1] = Metabolic stability in human hepatic microsome; assay type: in vitro ADME; details: human
[2] = PAMPA (parallel artificial membrane permeability assay); assay type: in vitro ADME; details: PAMPA
How it was run: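 Artificial membrane was 10% (w/v) egg lecithin plus 0.5% (w/v) cholesterol in dodecane on a PVDF filter. A 10 mM DMSO stock was added at 0.5% (v/v) to donor buffer (50 mM MOPSO, pH 6.5, 5.0% glycocholic acid). After 18 h at 37 °C, LC/MS or LC/UV gave donor and acceptor levels for Pe.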

[3] = microsomes, pH 7.4, CL NADPH(+)
[4] = human hepatic microsomes, pH 7.4, human hepatic microsome, NADPH(+), read-out: CL NADPH(+)
[5] = membrane permeation rate (Pe), 50 mM MOPSO buffer pH 6.5 with 5.0% glycocholic acid, 37° C., 18 hours, read-out: iPAMPA Pe

| SMILES | microsomal CLint at 1 uM [1, 3] [µL/min/mg] | Papp at 18 hours, 50 µM ([2]; pH 6.5) [×10⁻⁶ cm/s] | microsomal CLint at 1 uM [1, 4] [µL/min/mg] | Papp at 18 hours, 50 µM [2, 5] [×10⁻⁶ cm/s] |
| --- | --- | --- | --- | --- |
| CC(C)C[C@H]1C(=O)NCC(=O)N[C@H](C(=O)N2CCCCC2)CC(=O)N[C@H](C)C(=O)N[C@@H]([C@@H](C)O)C(=O)N(C)[C@@H](C)C(=O)N(C)[C@@H](Cc2ccccc2)C(=O)N[C@@H](COC(C)(C)C)C(=O)N(C)[C@@H](Cc2ccccc2)C(=O)N1C [DP-52] ([dA]T[NMeA][NMeF]S(tBu)[NMeF][NMeL]GD-Piperidide; lactam N-9) | 136 | 23 |  |  |
| CC[C@H](C)[C@H]1C(=O)N[C@H](C(=O)N2CCCCC2)CC(=O)N[C@H](C)C(=O)N[C@@H]([C@@H](C)O)C(=O)N(C)[C@@H](Cc2ccccc2)C(=O)N[C@@H](CC(C)C)C(=O)N(C)[C@@H](C)C(=O)N[C@@H](C(C)C)C(=O)N[C@@H](Cc2ccccc2)C(=O)N(C)[C@@H](CC(C)C)C(=O)N[C@@H](CC(C)C)C(=O)NCC(=O)N1C [DP-53] ([dA]T[NMeF]L[NMeA]VF[NMeL]LG[NMeI]D-Piperidide; lactam N-12) | 60 | 30 |  |  |
| CC[C@H](C)[C@H]1C(=O)N(C)[C@@H](Cc2ccccc2)C(=O)NCC(=O)N[C@@H]([C@@H](C)O)C(=O)N[C@@H](Cc2ccccc2)C(=O)N(C)[C@@H](CC(C)C)C(=O)N2CCC[C@H]2C(=O)N[C@H](C(=O)N2CCCCC2)CC(=O)N[C@H](C)C(=O)N[C@@H](CC(C)C)C(=O)N(C)[C@@H](C)C(=O)N[C@@H](CC(C)C)C(=O)N1C [DP-54] ([dA]L[NMeA]L[NMeI][NMeF]GTF[NMeL]PD-Piperidide; lactam N-12) | 13 | 15 |  |  |
| CC[C@H](C)[C@H]1C(=O)N[C@@H](C)C(=O)N[C@H](C(=O)N2CCCCC2)CC(=O)N[C@H](C(C)C)C(=O)N[C@@H](Cc2ccccc2)C(=O)N(C)CC(=O)N[C@@H](CC(C)C)C(=O)N[C@@H](Cc2ccccc2)C(=O)N2CCC[C@H]2C(=O)N[C@@H]([C@@H](C)O)C(=O)N[C@@H](COC(C)(C)C)C(=O)N(C)[C@@H](CC(C)C)C(=O)N1C [DP-55] ([dV]F[Sar]LFPTS(tBu)[NMeL][NMeI]AD-Piperidide; lactam N-12) | 79 | 21 |  |  |
| CC[C@H](C)[C@H]1C(=O)N[C@H](C(=O)N2CCCCC2)CC(=O)N[C@H](C(C)C)C(=O)N[C@@H]([C@@H](C)O)C(=O)N(C)CC(=O)N[C@@H](CC(C)C)C(=O)N2CCC[C@H]2C(=O)N(C)[C@@H](C(C)C)C(=O)N[C@@H](Cc2ccccc2)C(=O)N(C)[C@@H](Cc2ccccc2)C(=O)N(C)[C@@H](CC(C)C)C(=O)N[C@@H](C)C(=O)N1C [DP-56] ([dV]T[Sar]LP[NMeV]F[NMeF][NMeL]A[NMeI]D-Piperidide; lactam N-12) | 43 | 30 |  |  |
| CC[C@H](C)[C@H]1C(=O)N[C@@H](CC(C)C)C(=O)N2CCC[C@H]2C(=O)N[C@@H]([C@@H](C)O)C(=O)N(C)[C@@H](C)C(=O)N[C@@H](Cc2ccccc2)C(=O)N[C@H](C(=O)N2CCCCC2)CC(=O)N(C)[C@@H](C)C(=O)N[C@@H](Cc2ccccc2)C(=O)N(C)[C@@H](CC(C)C)C(=O)N[C@@H](COC(C)(C)C)C(=O)NCC(=O)N1C [DP-57] ([NMeA]F[NMeL]S(tBu)G[NMeI]LPT[NMeA]FD-Piperidide; lactam N-12) | 23 | 26 |  |  |
| CC[C@H](C)[C@H]1C(=O)N[C@@H](C)C(=O)N[C@H](C(=O)N2CCCCC2)CC(=O)N(C)[C@@H](C)C(=O)N[C@@H]([C@@H](C)O)C(=O)N(C)[C@@H](Cc2ccccc2)C(=O)N[C@@H](CC(C)C)C(=O)N2CCC[C@H]2C(=O)N(C)[C@@H](C(C)C)C(=O)N[C@@H](Cc2ccccc2)C(=O)N(C)CC(=O)N(C)[C@@H](CC(C)C)C(=O)N1C [DP-58] ([NMeA]T[NMeF]LP[NMeV]F[Sar][NMeL][NMeI]AD-Piperidide; lactam N-12) |  |  | 27 | 20 |
| CC[C@H](C)[C@H]1C(=O)NCC(=O)N(C)[C@@H](Cc2ccccc2)C(=O)N[C@@H]([C@@H](C)O)C(=O)N(C)[C@@H](C)C(=O)N[C@@H](CC(C)C)C(=O)N[C@H](C(=O)N2CCCCC2)CC(=O)N(C)CCC(=O)N(C)[C@@H](C)C(=O)N[C@@H](Cc2ccccc2)C(=O)N[C@@H](C(C)C)C(=O)N(C)[C@@H](CC(C)C)C(=O)N1C [DP-59] ([NMeβAla][NMeA]FV[NMeL][NMeI]G[NMeF]T[NMeA]LD-Piperidide; lactam N-12) | 65 | 21 |  |  |
| CC[C@H](C)C1C(=O)N[C@H](C(=O)N2CCCCC2)CC(=O)N(C)CC(=O)N(C)CC(=O)N[C@@H]([C@@H](C)O)C(=O)N(C)[C@@H](Cc2ccccc2)C(=O)N(C)[C@@H](CC(C)C)C(=O)N[C@@H](COC(C)(C)C)C(=O)N(C)[C@@H](CC(C)C)C(=O)N1C (stereo partly drawn) [DP-60] ([Sar][Sar]T[NMeF][NMeL]S(tBu)[NMeL][NMeξIle]D-Piperidide; lactam N-9) | 145 | 42 |  |  |
| CC[C@H](C)[C@H]1C(=O)N(C)[C@@H](Cc2ccccc2)C(=O)N[C@H](C(=O)N2CCCCC2)CC(=O)N(C)CCC(=O)NC(CC(C)C)C(=O)N(C)[C@@H](Cc2ccccc2)C(=O)N(C)[C@@H](CC(C)C)C(=O)N(C)[C@@H](C(C)C)C(=O)N[C@@H](C)C(=O)N(C)[C@@H](C)C(=O)N[C@@H]([C@@H](C)O)C(=O)N(C)CC(=O)N1C (stereo partly drawn) [DP-61] ([NMeβAla][ξL][NMeF][NMeL][NMeV]A[NMeA]T[Sar][NMeI][NMeF]D-Piperidide; lactam N-12) | 47 | 19 |  |  |
| CC[C@H](C)[C@H]1C(=O)NCC(=O)N[C@H](C(=O)N2CCCCC2)CC(=O)N(C)[C@H](C)C(=O)N[C@@H](Cc2ccccc2)C(=O)N(C)[C@@H](CC(C)C)C(=O)N[C@@H](COC(C)(C)C)C(=O)N[C@@H](Cc2ccccc2)C(=O)N2CCC[C@H]2C(=O)N[C@@H]([C@@H](C)O)C(=O)N[C@@H](CC(C)C)C(=O)N(C)[C@@H](C)C(=O)N1C [DP-62] ([dNMeA]F[NMeL]S(tBu)FPTL[NMeA][NMeI]GD-Piperidide; lactam N-12) | 22 | 33 |  |  |
| CC[C@H](C)[C@H]1C(=O)N(C)[C@@H](C)C(=O)N[C@@H](COC(C)(C)C)C(=O)N(C)[C@@H](CC(C)C)C(=O)N(C)[C@@H](CC(C)C)C(=O)N[C@H](C(=O)N2CCCCC2)CC(=O)N(C)[C@H](C)C(=O)N(C)[C@@H](Cc2ccccc2)C(=O)N[C@@H](C)C(=O)N(C)[C@@H](CC(C)C)C(=O)N[C@@H]([C@@H](C)O)C(=O)N[C@@H](Cc2ccccc2)C(=O)N1C [DP-63] ([dNMeA][NMeF]A[NMeL]TF[NMeI][NMeA]S(tBu)[NMeL][NMeL]D-Piperidide; lactam N-12) |  |  | 58 | 17 |
| CC[C@H](C)C1C(=O)N(C)[C@@H](Cc2ccccc2)C(=O)N[C@H](C(=O)N2CCCCC2)CC(=O)N(C)CC(=O)NC(CC(C)C)C(=O)N(C)[C@@H](Cc2ccccc2)C(=O)N(C)[C@@H](CC(C)C)C(=O)N[C@@H](C)C(=O)N(C)[C@@H](C(C)C)C(=O)N(C)[C@@H](C)C(=O)N[C@@H]([C@@H](C)O)C(=O)N(C)CC(=O)N1C (stereo partly drawn) [DP-64] ([Sar][ξL][NMeF][NMeL]A[NMeV][NMeA]T[Sar][NMeξIle][NMeF]D-Piperidide; lactam N-12) | 25 | 24 |  |  |
| CC[C@H](C)[C@H]1C(=O)N(C)[C@@H](CC(C)C)C(=O)N[C@H](C(=O)N2CCCCC2)CC(=O)N[C@H](C)C(=O)N[C@@H]([C@@H](C)O)C(=O)N(C)[C@@H](C)C(=O)N(C)[C@@H](Cc2ccccc2)C(=O)N2CCC[C@H]2C(=O)N[C@@H](C)C(=O)N(C)[C@@H](C(C)C)C(=O)N[C@@H](Cc2ccccc2)C(=O)N1C [DP-65] ([dA]T[NMeA][NMeF]PA[NMeV]F[NMeI][NMeL]D-Piperidide; lactam N-11) | 97 | 14 |  |  |
| CC(C)C[C@H]1C(=O)N(C)[C@@H](Cc2ccccc2)C(=O)N[C@@H](C)C(=O)N2CCC[C@H]2C(=O)N(C)[C@@H](CC(C)C)C(=O)N(C)[C@@H](Cc2ccccc2)C(=O)N(C)[C@@H](C(C)C)C(=O)N[C@H](C(=O)N2CCCCC2)CC(=O)N[C@H](C(C)C)C(=O)N[C@@H]([C@@H](C)O)C(=O)N(C)CC(=O)N1C [DP-66] ([dV]T[Sar][NMeL][NMeF]AP[NMeL][NMeF][NMeV]D-Piperidide; lactam N-11) | 69 | 19 |  |  |
| CC[C@H](C)[C@H]1C(=O)N(C)CC(=O)N(C)[C@@H](Cc2ccccc2)C(=O)N[C@H](C(=O)N2CCCCC2)CC(=O)N(C)CCC(=O)N(C)[C@@H](C(C)C)C(=O)N(C)[C@@H](CC(C)C)C(=O)N[C@@H](CC(C)C)C(=O)N[C@@H]([C@@H](C)O)C(=O)N(C)[C@@H](C)C(=O)N[C@@H](Cc2ccccc2)C(=O)N1C [DP-68] ([NMeβAla][NMeV][NMeL]LT[NMeA]F[NMeI][Sar][NMeF]D-Piperidide; lactam N-11) | 35 | 26 |  |  |
| CC[C@H](C)[C@H]1C(=O)N[C@@H]([C@@H](C)O)C(=O)N(C)[C@@H](C)C(=O)N(C)[C@@H](CC(C)C)C(=O)N[C@H](C(=O)N2CCCCC2)CC(=O)N(C)CC(=O)N(C)[C@@H](CC(C)C)C(=O)N[C@@H](CC(C)C)C(=O)N(C)[C@@H](Cc2ccccc2)C(=O)N[C@@H](COC(C)(C)C)C(=O)N(C)[C@@H](Cc2ccccc2)C(=O)N1C [DP-69] ([Sar][NMeL]L[NMeF]S(tBu)[NMeF][NMeI]T[NMeA][NMeL]D-Piperidide; lactam N-11) | 68 | 21 |  |  |
